Measurements as given in article PMC9241695, “Selective Metal Chelation by a Thiosemicarbazone Derivative Interferes with Mitochondrial Respiration and Ribosome Biogenesis in Candida albicans” (Microbiology Spectrum, 2022).
Values after ≈ are worked out from the molar mass of the structure shown.

Assays:
Type in all cases: cell-based
C. albicans G5 = experiment: microbe, parasite or virus in culture; settings: Candida albicans, G5
Excerpt: (§1) Compound library. The thiosemicarbazone derivatives Triapine and COTI-2 were purchased from Med Chem Express (MCE). The other 87 thiosemicarbazones used in this study were previously synthesized by our collaborators (1, 2). Their structures are shown in Table 1 and Table S1 to help the reader clearly understand the relationship between structure and activity.
(§2) Strains and culture conditions. Clinically derived C. albicans isolates, including G5, F5, and Gu5, were kindly provided by Professor Joachim Morschhäuser of the University of Würzburg. Other clinical C. albicans isolates were kindly donated by Professor Qingguo Qi of Shandong University and Qianfoshan Hospital of Shandong Province Other Candida strains were obtained from Jinan Central Hospital.
(§3) The zap1 mutant and its complemented strain were kindly provided by Professor Aaron P. Mitchell of Carnegie Mellon University (3). The C. neoformans strains used in this study was kindly donated by Professor Guojian Liao of Southwest University and A. fumigatus strain used in this study was provided by Professor Ling Lu of Nanjing Normal University. Before in vitro and in vivo experiments, all C. albicans strains were grown on YPD agar plates. After culturing at 30°C for 24 h, colonies of each strain were cultured in liquid YPD medium at 30°C with continuous shaking […]
(§4) Antifungal susceptibility testing. To determine in vitro antifungal activities, the microbroth dilution method was carried out in RPMI1640 medium according to the guidelines of the Clinical and Laboratory Standards Institute (4, 5). The initial concentration in RPMI1640 medium was 1 × 10^3 CFU/mL for the C. albicans and C. neoformans suspensions but 1 × 10^4 CFU/mL for A. fumigatus. The range of final drug concentrations was 0.0156–64 μg/mL. The plates were incubated at35°C for 24 […]
(§5) h (for C. albicans, C. krusei, C. tropicalis, C. parapsilosis) or 48 h (for C. neoformans, A. fumigatus). The MIC was determined based on visible growth inhibition compared with the control. All experiments were performed in duplicate. […]

C. albicans Gu5 = experiment: microbe, parasite or virus in culture; settings: Candida albicans, GU5
Excerpt: as §1, §2, §3, §4, §5

CAT = experiment: Catalase (CAT) activity in treated cells; settings: 0.5 μg/mL or above, 6 h
Protocol: Determination of SOD activity. SOD activity was measured using the Superoxide Dismutase Activity Assay Kit (Njjcbio, Nanjing, China) following the manufacturer's instructions. An overnight culture of C. albicans SC5314 was adjusted to 1 × 10^7 cells/mL with RPMI1640 medium and treated with 19ak at a final concentration of 0, 0.125, 0.25, 0.5, or 1 μg/mL for 6 h. After collection by centrifugation, the cells were broken by glass beads in extraction buffer and centrifuged at 4°C. The absorbance of the supernatant of each sample was measured with a microplate reader at450 nm.
Determination of catalase (CAT) activity. CAT activity was measured by using a Catalase Assay Kit (Solarbio, Beijing, China) following the manufacturer's instructions. An overnight culture of C. albicans SC5314 was adjusted to 1 × 10^6 cells/mL with RPMI1640 medium and treated as described above for SOD activity.
The decomposition of H2O2 is directly accompanied by a decrease in absorbance at 240 nm, and the difference in absorbance per unit time (ΔA240) is a measure of […]
Quantitative real-time polymerase chain reaction (qPCR) analysis. C. albicans SC5314 cells (1 × 10^6 cells/mL) were incubated with or without 19ak (0.5,2 μg/mL) in RPMI1640 medium for 6 h. Total RNA was extracted using the hot phenol method, and the RNA quality was analyzed using a spectrophotometer (Eppendorf, Hamburg, Germany). […]

SMILES: C/C(=N\NC(=S)N(C)C)c1ccccn1 [Compound 19ak]
- MIC80 (C. albicans G5): 1 µg/mL (≈ 4.5 µM)
- MIC80 (C. albicans Gu5): 0.25 µg/mL (≈ 1.12 µM)
- CAT activity (CAT): increased
